Laboratory results published in patent US7253296B2, “Acylated aminopropanediols and analogues and therapeutic uses thereof” (Genfit, priority 2003, dated 2007).

What was measured:
[1] = tested on: LDL; experiment: Protection against LDL oxidation induced by copper (conjugated diene formation, OD 234 nm); format: biochemical; details: for intrinsic antioxidant properties (delay of copper-induced LDL oxidation): FIG. 2; for shift of the lag phase latency (conjugated diene formation): relative to control sample, FIG. 2a
Procedure: Oxidation of LDL is an important modification which plays a major role in the onset and development of atherosclerosis (Jurgens, Hoff et al. 1987). […] Unless otherwise indicated, all reagents were from Sigma (St Quentin, France).
LDL were prepared as described in Lebeau et al. (Lebeau, Furman et al. 2000). The solutions of the test compounds were prepared at 10^−2 M in ethanol and diluted in PBS so that the final concentration ranged from 0.1 to 100 μM with a total ethanol concentration of 1% (VN).
Before oxidation, EDTA was removed from the LDL preparation by dialysis. The oxidation reaction was then carried out at 30° C. by adding 100 μl of 16.6 μM CuSO4 to 800 μl of LDL (125 μg protein/ml) and 100 μl of a test compound solution. The formation of dienes, the species to be followed, was measured by the optical density at 234 nm in the samples treated with the compounds in the presence or absence of copper. Optical density at 234 nm was measured every 10 minutes for 8 hours on a thermostated spectrophotometer (Kontron Uvikon 930). The analyses were carried out in triplicate. A compound was considered to have antioxidant activity when it shifted the lag phase latency relative to the control sample. […] FIG. 2 presents an example of the results obtained with the inventive compounds.

[2] = biological target: T1, Gal4/hPPARα (Homo sapiens, UniProt Q07869); experiment: Gal4/PPARα transactivation system in HepG2 cells (luciferase reporter); details: for induction factor (luminescent signal of treated cells divided by that of untreated cells): HepG2 cells, Gal4/PPARα, 24 h, FIG. 3
T1 sequence (Q07869 239-466 limits assumed): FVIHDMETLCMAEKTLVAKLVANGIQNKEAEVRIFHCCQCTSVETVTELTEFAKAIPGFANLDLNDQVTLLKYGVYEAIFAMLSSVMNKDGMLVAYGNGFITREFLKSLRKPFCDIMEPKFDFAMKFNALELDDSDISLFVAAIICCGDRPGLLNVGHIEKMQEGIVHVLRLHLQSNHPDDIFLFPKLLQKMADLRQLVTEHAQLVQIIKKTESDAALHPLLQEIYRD
Procedure: PPAR activation was tested in vitro in RK13 fibroblast cell lines or in a hematocyte line HepG2 by measuring the transcriptional activity of chimeras composed of the DNA binding domain of the yeast gal4 transcription factor and the ligand binding domain of the different PPARs.
HepG2 cells were from ECACC (Porton Down, UK) and were grown in DMEM medium supplemented with 10% (VN) fetal calf serum, 100 U/ml penicillin (Gibco, Paisley, UK) and 2 mM L-glutamine (Gibco, Paisley, UK). The culture medium was changed every two days. Cells were kept at 37° C. in a humidified 95% air/5% CO2 atmosphere.
The plasmids pG5TkpGL3, pRL-CMV, pGal4-hPPAR□, pGal4-hPPAR□ and pGal4-f have been described by Raspe et al. (Raspe, Madsen et al. 1999).
HepG2 cells were seeded in 24-well culture dishes at 5×10^4 cells/well and transfected for 2 hours with the reporter plasmid pG5TkpGL3 (50 ng/well), the expression vectors pGal4-f, pGal4-mPPARα, pGal4-hPPARα, pGal4-hPPARγ, pGal4-hPPARβ (100 ng/well) and the transfection efficiency control vector pRL-CMV (1 ng/well) according to the previously described protocol (Raspe, Madsen et al. 1999), then incubated for 36 hours with the test compounds. At the end of the experiment, the cells were lysed (Gibco, Paisley, UK) and luciferase activity was determined with a Dual-Luciferase™ Reporter Assay System kit (Promega, Madison, Wis., USA) according to the supplier's instructions. The protein content of the cell extracts was then measured with the Bio-Rad Protein Assay kit (Bio-Rad, Munich, Germany) as directed by the supplier.
The results are expressed as the induction factor (luminescent signal of treated cells divided by luminescent signal of untreated cells) after the different treatments.

Compound | melting point | induction factor (luminescent signal of treated cells divided by that of untreated cells) ([2]; 5 μM) | induction factor (luminescent signal of treated cells divided by that of untreated cells) ([2]; 15 μM) | induction factor (luminescent signal of treated cells divided by that of untreated cells) ([2]; 50 μM) | induction factor (luminescent signal of treated cells divided by that of untreated cells) ([2]; 100 μM) | intrinsic antioxidant properties (delay of copper-induced LDL oxidation) [1] | shift of the lag phase latency (conjugated diene formation) [1] | PPARα activation (luciferase activity / luminescent signal), in words ([2]; cells transfected with pGal4-hPPARα plasmid)
CCCCCCCCCCCCCCCC(=S)OC(CN)CN.Cl.Cl | 224 °C (dec.) |  |  |  |  |  |  | 
1,2-(dipalmitoyloxy)-3-tetradecylthioacetylaminopropane [Ex 4] |  |  |  |  |  | exhibit intrinsic antioxidant properties | 34.3% | 
CCCCCCCCCCCCCCSCC(=O)NCC(O)CO (stereo not shown) [Ex 2, 3-(tetradecylthioacetylamino)propane-1,2-diol] |  | 1.5 fold | 7.7 fold | 19.8 fold | 19.2 fold | exhibit intrinsic antioxidant properties | more than 13% | 
CCCCCCCCCCCCCCSCC(=O)NCC(CNC(=O)CSCCCCCCCCCCCCCC)OC(=O)CSCCCCCCCCCCCCCC [Ex 11, 1,3-ditetradecylthioacetylamino-2-(tetradecylthioacetyloxy)propane] |  |  |  |  |  | exhibit intrinsic antioxidant properties |  | 

Now from value to compound, other results behind:

melting point | induction factor (luminescent signal of treated cells divided by that of untreated cells) ([2]; 5 μM) | induction factor (luminescent signal of treated cells divided by that of untreated cells) ([2]; 15 μM) | induction factor (luminescent signal of treated cells divided by that of untreated cells) ([2]; 50 μM) | induction factor (luminescent signal of treated cells divided by that of untreated cells) ([2]; 100 μM) | Compound | intrinsic antioxidant properties (delay of copper-induced LDL oxidation) [1] | shift of the lag phase latency (conjugated diene formation) [1] | PPARα activation (luciferase activity / luminescent signal), in words ([2]; cells transfected with pGal4-hPPARα plasmid)
 | 1.1 fold | 2.2 fold | 9.6 fold | 14.5 fold | 1,2-(ditetradecylthioacetyloxy)-3-palmitoylaminopropane [Ex 6] | exhibit intrinsic antioxidant properties |  | induced an increase in the luminescent signal
 | 1,2 fold | 2.5 fold | 7 fold | 10.5 fold | 1,2-(ditetradecylthioacetyloxy)-3-tetradecylthioacetylaminopropane [Ex 5] | exhibit intrinsic antioxidant properties |  | 
104 to 108 °C |  |  |  |  | CCCCCCCCCCCCCCCC(=O)NCC(O)CO (stereo not shown) [Ex 3, 3-(palmitoylamino)propane-1,2-diol] |  |  | 
